What was measured:
[1] = target: T1, homomeric GluK2a kainate receptor (Rattus norvegicus, UniProt P42260); assay: Whole-cell patch clamp of recombinant GluK2a receptors in HEK293-T/17 cells; type: cell-based; conditions: 30 μM; 10 mM glutamate
T1 construct: myc; expressed in transfected cells; host or cells: HEK293-T/17 (CRL-11268)
Method: Cell Culture and Transfection. Human embryonic kidney cells expressing T-antigen, clone 17 (HEK293-T/17) (CRL-11268) were cultured at 37° C. with 5% CO2 in DMEM, including 100 μg/mL penicillin, 100 μg/mL streptomycin, and 10% heat-inactivated fetal bovine serum. Cells were split twice per week. For transfection, HEK293-T/17 cells were plated at 3×10^4 cells/cm^2 for pharmacology experiments and 5×10^3 cells/cm^2 for physiology experiments in fresh medium 24 h prior to transfection. Cells were transfected with AMPA or KA receptor plasmid cDNAs using Mirus Trans-IT transfection reagent (Minus Bio Corporation, Madison, Wis.) at a ratio of 1 μg cDNA: 3 μL Trans-1T reagent and maintained in transfection medium overnight followed by a media change the next day. Transfected cells were maintained in this medium until the experiment was conducted (48-72 h total post transfection).
Electrophysiology. For analysis of recombinant receptors, HEK293-T/17 cells were co-transfected with 0.2 μg of iGluR cDNA and 0.05 μg of eGFP. For heterologous GluA1/GluA2 receptors, the GluA1:GluA2 cDNA ratio was 1:6. Two to three days post-transfection, eGFP-expressing cells were lifted from the cover slip and voltage clamped in whole cell mode. […]

[2] = system: primary hippocampal neurons; assay: Spontaneous action potential firing, current clamp, cultured hippocampal neurons; type: cell-based; conditions: 20 μM
Method: Experiments involving primary hippocampal neurons were carried out as described previously (Vivithanaporn et al., 2007). Dissociated neurons were cultured from E18 prenatal hippocampi and were used for analysis from between 17 and 28 days in vitro. The extracellular solution was the same as used for recombinant receptor analysis, while the internal solution for voltage clamp recordings contained (in mM) 95 CsF, 25 CsCl, 10 Cs-HEPES, 10 EGTA, 2 NaCl, 2 Mg-ATP, 10 QX-314, 5 TEA. and 5 4-AP (pH 7.3) and the internal solution for current clamp recordings contained (in mM) 120 KMeSO4, 5 KCl, 5 NaCl, 1 MgCl2, 11 Na-HEPES, 10 phosphocreatine, 4 Na-ATP, and 0.3 Na-GTP (pH 7.0). Borosilicate patch electrodes were pulled and fire polished to 3-5 MΩ resistance. Both whole cell current clamp and voltage clamp recordings were performed using an Axopatch 200B amplifier (MDS, Sunnyvale, Calif.) and filtered at 20 kHz. Gigaohm seals were established in voltage clamp mode and, after membrane rupture, the recordings were carried out either in voltage clamp (clamped at Vm=−70 mV) with a […] series resistance, which was compensated to ˜60%, or in current clamp mode ([…]) with the bridge balance was corrected and pipette resistance neutralized. In vitro status epilepticus (SE) was induced as described previously (Deshpande et al., 2007; Pal et al., 1999) and action potentials were recorded in current clamp mode. Briefly for in vitro SE, magnesium-containing external solution was exchanged for external solution without magnesium and supplemented with 2 μM glycine. This solution exchange produced a period of rapid depolarization and increased AP firing, followed by a period of channel inactivation and reduced AP firing. After channel inactivation, neurons characteristically would hyperpolarize to hold at a membrane voltage (Vm) which was depolarized relative to control Vm, with an increase in AP firing frequency. […] External solutions were bath-applied at a flow rate of 1.5-2 ml/minute. After recording a basal control period, IKM compounds were applied for five minutes (10 minutes for in vitro SE experiments) and changes in excitatory post-synaptic current (EPSC) charge transfer or action potential (AP) frequency were analyzed during the last two minutes of IKM application.
Effects of IKM-159 on neuronal excitability. […] To determine if altered neuronal excitability could contribute to this behavioral phenotype, we examined the effect of IKM-86 and IKM-159 on action potential firing in cultured hippocampal neurons. Spontaneous action potentials were recorded in current-clamp mode before, during and after application of 20 μM IKM-86 and IKM-159. […]

T1 sequence (P42260 32-908): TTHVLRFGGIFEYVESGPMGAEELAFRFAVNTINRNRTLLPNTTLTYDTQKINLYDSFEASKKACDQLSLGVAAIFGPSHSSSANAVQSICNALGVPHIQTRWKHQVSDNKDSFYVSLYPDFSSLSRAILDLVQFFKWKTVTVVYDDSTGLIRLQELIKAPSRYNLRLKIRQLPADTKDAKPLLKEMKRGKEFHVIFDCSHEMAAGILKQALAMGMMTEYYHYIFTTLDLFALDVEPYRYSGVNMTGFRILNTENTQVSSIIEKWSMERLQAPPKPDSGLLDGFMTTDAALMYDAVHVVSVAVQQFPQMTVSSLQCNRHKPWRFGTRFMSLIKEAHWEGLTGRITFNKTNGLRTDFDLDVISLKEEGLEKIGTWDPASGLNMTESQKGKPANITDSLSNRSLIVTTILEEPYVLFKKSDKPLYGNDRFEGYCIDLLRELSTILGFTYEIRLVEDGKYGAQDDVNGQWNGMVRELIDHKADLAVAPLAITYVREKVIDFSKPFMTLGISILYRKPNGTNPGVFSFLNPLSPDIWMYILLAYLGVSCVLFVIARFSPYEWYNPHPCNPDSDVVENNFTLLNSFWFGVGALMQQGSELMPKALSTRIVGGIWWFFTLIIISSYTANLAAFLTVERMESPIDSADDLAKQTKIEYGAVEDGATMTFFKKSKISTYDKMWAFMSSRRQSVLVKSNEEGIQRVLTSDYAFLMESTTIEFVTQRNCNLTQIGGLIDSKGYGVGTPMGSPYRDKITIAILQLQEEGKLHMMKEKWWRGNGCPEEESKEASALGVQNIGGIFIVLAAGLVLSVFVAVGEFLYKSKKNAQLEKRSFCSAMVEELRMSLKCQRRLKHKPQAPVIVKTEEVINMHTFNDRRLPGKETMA

SMILES: O=C(O)C[C@@]12O[C@H]3C=CCN[C@H]3C1CN[C@H]2C(=O)O (stereo partly drawn) [IKM-159]
- GluK2a peak amplitude as percent of basal peak glutamate current [1]: 93±2%
- persistence of reduction in action potential firing frequency after removal of compound [2]: prolonged
- action potential firing frequency in presence of compound ([2]; basal (spontaneous) firing): 0.5±0.04 Hz
